Source: EPA's ToxRefDB 2

Columns and labels:
[1] = test system: rat; conditions: Subchronic oral toxicity in rodents, other, Gavage/Intubation, dose end: 90 day, group: systemic, systemic / hematology / erythrocyte (rbc) count differential / erythrocyte (rbc) + systemic / hematology / hematocrit (hct) / hematocrit (…
[2] = test system: rat; conditions: Subchronic oral toxicity in rodents, sprague dawley, Gavage/Intubation, dose end: 13 week, group: systemic
[3] = test system: rat; conditions: Subchronic dermal toxicity, sprague dawley, Topical, dose end: 13 week, group: systemic
[4] = test system: mouse; conditions: Combined chronic toxicity/carcinogenicity, b6c3f1, Oral, Water, dose end: 104 week, group: systemic
[5] = test system: rat; conditions: Combined chronic toxicity/carcinogenicity, sprague dawley, Oral, Feed, dose end: 108 week, group: systemic
[6] = test system: dog; conditions: Chronic toxicity, beagle, Oral, Gavage/Intubation, dose end: 6 month, group: systemic
[7] = test system: mouse; conditions: Carcinogenicity, cd1, Oral, Feed, dose end: 104 week, group: systemic
[8] = test system: dog; conditions: Subchronic oral toxicity in nonrodent, beagle, Feed, dose end: 100 day, group: systemic
[9] = test system: dog; conditions: Chronic toxicity, beagle, Oral, Feed, dose end: 373 day, group: systemic
[10] = test system: rat; conditions: Prenatal developmental toxicity study, wistar, Oral, Gavage/Intubation, dose end: 15 GD
[11] = test system: rat; conditions: Chronic toxicity, wistar, Oral, Feed, dose end: 24 month, group: systemic
[12] = test system: dog; conditions: Chronic toxicity; beagle; Oral; Feed; dose end: 371 day; group: systemic; systemic / clinical chemistry / alanine aminotransferase (alt/sgpt) / alanine aminotransferase (alt/sgpt) + systemic / clinical chemistry / …
[13] = test system: mouse; conditions: Carcinogenicity; other; Oral; Feed; dose end: 18 month; group: systemic; systemic / in life observation / body weight / body weight + systemic / in life observation / body weight / body weight gain
[14] = test system: rat; conditions: Multigenerational reproductive toxicity study, wistar, Oral, Feed, dose end: 2 generation
[15] = test system: mouse; conditions: Subchronic oral toxicity in rodents, b6c3f1, Feed, dose end: 90 day, group: systemic
[16] = test system: rat; conditions: Carcinogenicity, other, Oral, Feed, dose end: 24 month, group: systemic
[17] = test system: rat; conditions: Subchronic oral toxicity in rodents, wistar, Feed, dose end: 3 month, group: systemic
[18] = test system: rat; conditions: Chronic toxicity, sprague dawley, Oral, Feed, dose end: 4 week, group: systemic
[19] = test system: rat; conditions: Multigenerational reproductive toxicity study, sprague dawley, Inhalation, Whole-Body, dose end: 2 generation
[20] = test system: rat; conditions: Prenatal developmental toxicity study; wistar; Inhalation; Whole-Body; dose end: 19 GD; group: maternal; systemic / pathology gross / kidney / [other]
[21] = test system: rat; conditions: Combined chronic toxicity/carcinogenicity; sprague dawley; Oral; Feed; dose end: 104 week; group: systemic; systemic / in life observation / body weight / body weight + systemic / in life observation / body weight / body weight gain + systemic / in…
[22] = systemic / pathology microscopic / stomach / infiltration cellular + systemic / pathology gross / stomach / discolored + systemic / …
[23] = systemic / pathology microscopic / stomach / infiltration cellular + systemic / pathology gross / stomach / prominent limiting ridge + …
[24] = systemic / in life observation / clinical signs / erythema + systemic / in life observation / clinical signs / body surface staining + …
[25] = systemic / in life observation / clinical signs / erythema + systemic / pathology microscopic / skin / hyperplasia + systemic / pathology …
[26] = systemic / in life observation / body weight / body weight
[27] = systemic / in life observation / body weight / body weight + systemic / in life observation / water consumption / water consumption
[28] = systemic / pathology microscopic / adrenal gland / hyperplasia + systemic / pathology microscopic / thyroid gland / hyperplasia
[29] = systemic / pathology microscopic / adrenal gland / hyperplasia + systemic / pathology microscopic / thyroid gland / hyperplasia + systemic…
[30] = systemic / organ weight / thyroid gland / absolute
[31] = systemic / organ weight / thyroid gland / absolute + systemic / hematology / platelet / platelet + systemic / in life observation / body …
[32] = systemic / pathology microscopic / liver / pigmentation
[33] = systemic / pathology gross / prostate / reduced size
[34] = systemic / pathology gross / urinary bladder / foci
[35] = group: developmental, developmental / developmental malformation / bone / unossified + developmental / developmental malformation / ureter / hydroureter + …
[36] = group: maternal, systemic / in life observation / food consumption / food consumption + reproductive / reproductive performance / resorptions / resorptions…
[37] = systemic / pathology microscopic / liver / adenoma/carcinoma combined + systemic / pathology microscopic / liver / carcinoma + systemic / in…
[38] = group: offspring, systemic / in life observation / body weight / offspring (pup) weight + systemic / in life observation / body weight / offspring (pup) …
[39] = group: parental, systemic / in life observation / body weight / body weight + systemic / in life observation / body weight / body weight gain + systemic / in…
[40] = systemic / pathology microscopic / heart / vacuolization + systemic / pathology microscopic / liver / hypertrophy
[41] = systemic / pathology microscopic / heart / vacuolization + systemic / pathology microscopic / liver / hypertrophy + systemic / clinical …
[42] = systemic / pathology microscopic / liver / polymorphism
[43] = systemic / clinical chemistry / albumin / albumin + systemic / clinical chemistry / creatinine / creatinine + systemic / clinical chemistry…
[44] = systemic / clinical chemistry / creatinine / creatinine
[45] = systemic / in life observation / body weight / body weight gain + systemic / in life observation / food consumption / food consumption
[46] = group: offspring, systemic / in life observation / body weight / offspring (pup) weight
[47] = group: parental, systemic / in life observation / body weight / body weight
[48] = group: reproductive, reproductive / reproductive performance / pregnancy / pregnancy

## [Na+].[O-][Cl+2]([O-])[O-] [Sodium chlorate]
[1]
  LEL: 1000 mg/kg/day
  LOAEL: 1000 mg/kg/day
  NEL: 100 mg/kg/day
  NOAEL: 100 mg/kg/day

## OCCN1CN(CCO)CN(CCO)C1 [1,3,5-Triazine-1,3,5(2H,4H,6H)-triethanol]
[2]; [22]
  NEL: 50 mg/kg/day
  NOAEL: 50 mg/kg/day
[2]; [23]
  LEL: 100 mg/kg/day
  LOAEL: 100 mg/kg/day
[3]; [24]
  LEL: 5 mg/kg/day
  NEL: < 5 mg/kg/day
[3]; [25]
  LOAEL: 50 mg/kg/day
  NOAEL: 5 mg/kg/day

## NCl [Chloramine]
[4]; [26]
  LEL: 6.67 mg/kg/day
  NEL: < 6.67 mg/kg/day
[4]; [27]
  LOAEL: > 26.7 mg/kg/day
  NOAEL: ≥ 26.7 mg/kg/day

## COC(=O)NS(=O)(=O)c1ccc(N)cc1 [Asulam]
[5]; [28]
  LEL: 180 mg/kg/day
  LOAEL: 180 mg/kg/day
[5]; [29]
  NEL: 36 mg/kg/day
  NOAEL: 36 mg/kg/day
[6]; [30]
  LEL: 300 mg/kg/day
  LOAEL: 300 mg/kg/day
[6]; [31]
  NEL: 60 mg/kg/day
  NOAEL: 60 mg/kg/day
[7]; systemic / in life observation / body weight / body weight gain + systemic / organ weight / spleen / nos
  LOAEL: 8040 mg/kg/day
[7]; [32]
  LEL: 74 mg/kg/day
  NEL: < 74 mg/kg/day
[7]; systemic / pathology microscopic / liver / pigmentation + systemic / in life observation / body weight / body weight gain + systemic / organ…
  NOAEL: 730 mg/kg/day

## CC/C(=N\OC/C=C/Cl)C1=C(O)CC(C2CCOCC2)CC1=O (stereo not given) [Tepraloxydim]
[8]; systemic / organ weight / liver / absolute + systemic / organ weight / liver / relative to body weight
  LOAEL: 63.3 mg/kg/day
[8]; systemic / organ weight / liver / absolute + systemic / organ weight / liver / relative to body weight + systemic / clinical chemistry / …
  NOAEL: 12.9 mg/kg/day
[8]; [33]
  LEL: 12.9 mg/kg/day
  NEL: < 12.9 mg/kg/day
[9]; systemic / clinical chemistry / cholesterol / cholesterol + systemic / clinical chemistry / creatinine / creatinine + systemic / clinical …
  LOAEL: 56 mg/kg/day
[9]; [34]
  LEL: 3 mg/kg/day
  NEL: < 3 mg/kg/day
[9]; systemic / pathology gross / urinary bladder / foci + systemic / clinical chemistry / cholesterol / cholesterol + systemic / clinical …
  NOAEL: 11.5 mg/kg/day
[10]; [35]
  LEL: 120 mg/kg/day
  LOAEL: 120 mg/kg/day
  NEL: 40 mg/kg/day
  NOAEL: 40 mg/kg/day
[10]; group: maternal, systemic / in life observation / food consumption / food consumption
  LOAEL: 360 mg/kg/day
[10]; [36]
  LEL: 360 mg/kg/day
  NEL: 120 mg/kg/day
  NOAEL: 120 mg/kg/day
[11]; [37]
  LOAEL: 154 mg/kg/day
  NEL: 5 mg/kg/day
  NOAEL: 29 mg/kg/day
[11]; systemic / pathology microscopic / liver / carcinoma
  LEL: 29 mg/kg/day
[12]
  LEL: 248 mg/kg/day
  LOAEL: 248 mg/kg/day
  NEL: < 248 mg/kg/day
  NOAEL: < 248 mg/kg/day
[13]
  LEL: 52 mg/kg/day
  LOAEL: 52 mg/kg/day
  NEL: < 52 mg/kg/day
  NOAEL: < 52 mg/kg/day
[14]; [38]
  LEL: 267 mg/kg/day
  LOAEL: 267 mg/kg/day
  NEL: 50.3 mg/kg/day
  NOAEL: 50.3 mg/kg/day
[14]; [39]
  LEL: 253 mg/kg/day
  LOAEL: 253 mg/kg/day
  NEL: 50.9 mg/kg/day
  NOAEL: 50.9 mg/kg/day
[15]; [40]
  LEL: 310 mg/kg/day
  LOAEL: 310 mg/kg/day
[15]; [41]
  NEL: 82 mg/kg/day
  NOAEL: 82 mg/kg/day
[16]; systemic / pathology microscopic / liver / eosinophilic focus + systemic / pathology microscopic / liver / infiltration cellular
  LEL: 30 mg/kg/day
[16]; systemic / pathology microscopic / liver / eosinophilic focus + systemic / pathology microscopic / liver / infiltration cellular + systemic…
  NEL: 5 mg/kg/day
[16]; [42]
  LOAEL: 6 mg/kg/day
  NOAEL: < 6 mg/kg/day
[17]; [43]
  LOAEL: 223 mg/kg/day
  NOAEL: 22 mg/kg/day
[17]; [44]
  LEL: 22 mg/kg/day
  NEL: < 22 mg/kg/day

## CBr [Methyl bromide]
[18]; systemic / in life observation / body weight / body weight gain
  LOAEL: 7.59 mg/kg/day
[18]; [45]
  NEL: 0.082 mg/kg/day
  NOAEL: 0.825 mg/kg/day
[18]; systemic / in life observation / food consumption / food consumption
  LEL: 0.825 mg/kg/day
[19]; [46]
  LEL: 30 ppm
  LOAEL: 30 ppm
  NEL: 3 ppm
  NOAEL: 3 ppm
[19]; [47]
  LOAEL: 90 ppm
  NOAEL: 30 ppm
[19]; group: parental, systemic / in life observation / body weight / body weight + systemic / organ weight / liver / relative to body weight + systemic / organ …
  LEL: 90 ppm
[19]; group: parental, systemic / organ weight / liver / relative to body weight
  NEL: 30 ppm
[19]; [48]
  LEL: 30 ppm
  LOAEL: 30 ppm
  NEL: 3 ppm
  NOAEL: 3 ppm
[20]
  LEL: 70 ppm
  LOAEL: 70 ppm
  NEL: 20 ppm
  NOAEL: 20 ppm
[21]
  LEL: 11.1 mg/kg/day
  LOAEL: 11.1 mg/kg/day
  NEL: 2.2 mg/kg/day
  NOAEL: 2.2 mg/kg/day
